Laboratory results published in ChEMBL document CHEMBL3120074, “p-Terphenyl O-β-glucuronides, DNA topoisomerase inhibitors from Streptomyces sp. LZ35ΔgdmAI” (2014).
Calls of active or inactive are those of the source. No cut-off for these calls is given here.

Tests used:
Bacillus subtilis = experiment: Antibacterial activity against Bacillus subtilis ACCC 11060 at 30 ug/disc after 24 hrs by paper disc diffusion assay; type: functional; details: ACCC 11060, 24 h, read-out: DIZ
Globisporangium ultimum = experiment: Antifungal activity against Pythium ultimum PR9.00318 at 30 ug/disc after 48 hrs by paper disc diffusion assay; type: functional, organism-based
[1] = Antifungal activity against Monilia albican ATCC 10231 at 30 ug/disc after 48 hrs by paper disc diffusion assay; type: functional
[2] = tested on: Mycolicibacterium smegmatis; experiment: Antibacterial activity against Mycobacterium smegmatis MC2 155 at 30 ug/disc after 24 hrs by paper disc diffusion assay; type: functional; details: str. MC2 155, 24 h, read-out: DIZ
[3] = target: DNA topoisomerase 2-alpha (Homo sapiens) (UniProt P11388); experiment: Inhibition of human recombinant DNA topoisomerase 2alpha-mediated relaxation of supercoiled pBR322 DNA at 100 uM after 30 mins by agarose gel electrophoresis
Chain of DNA topoisomerase 2-alpha (Homo sapiens) (P11388 whole entry, the tested form may be a part): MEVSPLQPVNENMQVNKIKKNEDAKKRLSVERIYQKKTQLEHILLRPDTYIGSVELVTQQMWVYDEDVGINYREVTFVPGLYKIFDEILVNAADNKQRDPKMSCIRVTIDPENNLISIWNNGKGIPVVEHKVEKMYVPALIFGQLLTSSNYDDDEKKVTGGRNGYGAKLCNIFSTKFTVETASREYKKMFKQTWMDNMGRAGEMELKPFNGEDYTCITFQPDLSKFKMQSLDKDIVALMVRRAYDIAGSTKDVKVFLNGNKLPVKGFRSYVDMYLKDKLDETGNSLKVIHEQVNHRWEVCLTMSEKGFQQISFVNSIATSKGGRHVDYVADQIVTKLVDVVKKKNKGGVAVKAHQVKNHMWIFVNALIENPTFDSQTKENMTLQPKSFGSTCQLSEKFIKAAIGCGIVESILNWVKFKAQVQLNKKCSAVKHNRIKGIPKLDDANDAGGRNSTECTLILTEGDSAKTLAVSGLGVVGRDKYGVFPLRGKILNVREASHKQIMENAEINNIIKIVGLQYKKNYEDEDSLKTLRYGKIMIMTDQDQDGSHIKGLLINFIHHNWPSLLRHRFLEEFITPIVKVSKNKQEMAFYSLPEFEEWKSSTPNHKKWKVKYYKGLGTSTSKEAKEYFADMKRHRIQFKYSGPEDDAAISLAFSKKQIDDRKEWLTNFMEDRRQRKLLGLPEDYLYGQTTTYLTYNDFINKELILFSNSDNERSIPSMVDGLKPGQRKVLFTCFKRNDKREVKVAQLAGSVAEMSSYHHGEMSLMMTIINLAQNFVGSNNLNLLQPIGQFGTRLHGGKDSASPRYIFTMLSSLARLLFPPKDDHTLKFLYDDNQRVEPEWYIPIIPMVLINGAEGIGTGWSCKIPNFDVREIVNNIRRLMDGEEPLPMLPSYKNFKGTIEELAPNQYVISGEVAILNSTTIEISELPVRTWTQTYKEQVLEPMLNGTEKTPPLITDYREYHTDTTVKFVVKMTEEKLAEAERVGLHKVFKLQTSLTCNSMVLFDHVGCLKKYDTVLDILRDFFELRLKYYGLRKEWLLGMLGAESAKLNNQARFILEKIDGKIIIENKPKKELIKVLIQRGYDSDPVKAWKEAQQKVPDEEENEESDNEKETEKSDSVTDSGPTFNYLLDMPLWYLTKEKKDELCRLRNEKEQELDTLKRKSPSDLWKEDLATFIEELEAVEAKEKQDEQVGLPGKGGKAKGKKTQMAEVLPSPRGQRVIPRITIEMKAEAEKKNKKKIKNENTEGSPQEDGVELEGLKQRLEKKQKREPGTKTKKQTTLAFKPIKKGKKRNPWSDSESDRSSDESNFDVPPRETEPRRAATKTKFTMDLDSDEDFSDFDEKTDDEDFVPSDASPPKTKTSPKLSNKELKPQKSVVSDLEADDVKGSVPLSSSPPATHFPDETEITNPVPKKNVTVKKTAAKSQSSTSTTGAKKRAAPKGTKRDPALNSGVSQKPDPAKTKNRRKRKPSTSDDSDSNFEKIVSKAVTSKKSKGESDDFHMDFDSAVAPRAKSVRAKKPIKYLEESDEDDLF

Rhizoctonia solani = experiment: Antifungal activity against Rhizoctonia solani GXE4 at 30 ug/disc after 48 hrs by paper disc diffusion assay; type: functional, organism-based
Bos taurus = species: Bos taurus; experiment: Inhibition of calf thymus DNA topoisomerase 1-mediated relaxation of supercoiled pBR322 DNA at 100 uM after 30 mins by agarose gel electrophoresis

Row | SMILES | zone of inhibition at 30 µg/disc (Bacillus subtilis) [mm] | Activity (Globisporangium ultimum) | Activity [1] | zone of inhibition at 30 µg/disc [2] [mm] | inhibition [3] | Activity (Rhizoctonia solani) | inhibition (Bos taurus)
1 | O=C(O)[C@H]1O[C@@H](Oc2c(-c3ccccc3)cc(O)c(-c3ccccc3)c2O)[C@H](O)[C@@H](O)[C@@H]1O | 15.8 | inactive | inactive | 11.2 | Active | inactive | 
2 | COC(=O)[C@H]1O[C@@H](Oc2c(-c3ccccc3)cc(O)c(-c3ccccc3)c2O)[C@H](O)[C@@H](O)[C@@H]1O | 14 | inactive | inactive | 12 | Active | inactive | Active
3 | Cn1c(=O)sc2c(-c3ccccc3)c(O)c(O[C@@H]3O[C@H](C(=O)O)[C@@H](O)[C@H](O)[C@H]3O)c(-c3ccccc3)c21 |  | inactive | inactive |  | inactive | inactive | inactive
4 | O=C(O)[C@H]1O[C@@H](Oc2c(O)c(-c3ccccc3)c3scnc3c2-c2ccccc2)[C@H](O)[C@@H](O)[C@@H]1O |  | inactive | inactive |  | inactive | inactive | inactive
5 | COc1c(-c2ccccc2)cc(O[C@@H]2O[C@H](C(=O)O)[C@@H](O)[C@H](O)[C@H]2O)c(-c2ccccc2)c1O |  | inactive | inactive |  | Active | inactive | 
